Reference: patent US8492559B2, “Substituted indole compounds” (Gruenenthal GmbH, priority 2009, dated 2013)

Molecular target: T1, B1R receptor of the rat (rB1R) (Rattus norvegicus, UniProt P97583)
T1 construct: expressed in transfected cells; host or cells: CHO K1 cells
T1 sequence (P97583 1-337): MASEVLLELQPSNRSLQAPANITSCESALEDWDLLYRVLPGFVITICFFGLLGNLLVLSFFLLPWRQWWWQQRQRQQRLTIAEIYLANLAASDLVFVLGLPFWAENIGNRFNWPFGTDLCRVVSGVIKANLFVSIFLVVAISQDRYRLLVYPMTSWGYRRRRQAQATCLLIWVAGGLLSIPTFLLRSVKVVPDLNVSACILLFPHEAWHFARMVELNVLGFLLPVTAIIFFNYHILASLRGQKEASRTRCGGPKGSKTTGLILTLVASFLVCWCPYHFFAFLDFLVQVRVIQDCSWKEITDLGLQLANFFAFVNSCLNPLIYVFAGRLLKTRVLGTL
Experiment: Functional investigation on the bradykinin 1 receptor (B1R), FLIPR Ca2+ assay, rB1R cells
Format: cell-based
Conditions: CHO K1 cells with rat B1R, agonist Des-Arg9 bradykinin, % of maximum achievable inhibition; for inhibition at 10 µM: CHO-K1, 10 μM test substance, read-out: B1R antagonism, rat [10 μM] % inhibition
Experimental: The indication in % activation is based on the Ca^2+ signal after addition of Lys-Des-[…] bradykinin (0.5 nM) or Des-[…] bradykinin (100 nM). Antagonists lead to a suppression of the Ca^2+ influx following administration of the agonist. The % inhibition in comparison with the maximum achievable inhibition is indicated. […] According to this assay, the Ca^2+ inflow through the channel is quantified with the aid of a Ca^2+-sensitive dye (Fluo-4 type, Molecular Probes Europe BV, Leiden, Netherlands) in a fluorescent imaging plate reader (FLIPR, Molecular Devices, Sunnyvale, USA). […] For functional investigations these cells are plated-out onto black 96-well plates with a clear base (BD Biosciences, Heidelberg, Germany or Greiner, Frickenhausen, Germany) in a density of 20,000-35,000 cells/well. Overnight the cells are incubated at 37° C. and 5% CO2 in culture medium (hB1R cells: Ham's Nutrient Mixture F12, Gibco Invitrogen GmbH, Karlsruhe, Germany or DMEM, Sigma-Aldrich, Taufkirchen, Germany; rB1R cells: D-MEM/F12, Gibco Invitrogen, Karlsruhe, Germany) with 10 vol. % FBS (foetal bovine serum, Gibco Invitrogen GmbH, Karlsruhe, Germany or PAN Biotech GmbH, Aidenbach, Germany). On the following day the cells are loaded with 2.13 μM Fluo-4 (Molecular Probes Europe BV, Leiden, Netherlands) in HBSS buffer (Hank's buffered saline solution, Gibco Invitrogen GmbH, Karlsruhe, Germany) with 2.5 mM probenecid (Sigma-Aldrich, Taufkirchen, Germany) and 10 mM HEPES (Sigma-Aldrich, Taufkirchen, Germany) for 60 min at 37° C. […] Sigma-Aldrich, Taufkirchen, Germany), 5.6 mM glucose and 0.05% gelatine (Merck KGaA, Darmstadt, Germany) is added. After a further incubation of 20 minutes at room temperature, the plates are inserted into the FLIPR for Ca^2+ measurement. Alternatively they are washed with buffer A (15 mM HEPES, 80 mM NaCl, 5 mM KCl, 1.2 mM CaCl2, 0.7 mM MgSO4, 2 g/l glucose, 2.5 mM probenecid) and loaded with buffer A with added 2.5 μM Fluo-4 and 0.025% Pluronic F127 (Sigma-Aldrich, Taufkirchen, Germany). The cells are then washed twice with buffer A and incubated for 30 minutes with buffer A, which additionally contains 0.05% BSA and 0.05% gelatine, at room temperature and then used for Ca^2+ measurement in the FLIPR. The Ca^2+-dependent fluorescence is measured here before and after addition of substances (λex=488 nm, λem=540 nm). The quantification is performed by measuring the highest fluorescence intensity (FC, fluorescence counts) over time. The FLIPR protocol comprises two additions of substance. […] Lys-Des-[…] bradykinin>=50 nM; rB1R: […] Antagonists lead to a suppression of the Ca^2+ inflow. The % inhibition in comparison with the maximum achievable inhibition is calculated. The substances are added in varying concentrations in order to determine the IC50 value. Double or triple determinations (n=2 or n=3) are performed and these are repeated in at least one further independent experiment (N>=2).

SMILES | B1R antagonism, rat [10 μM] % inhibition (10 μM test substance) [%] | inhibition at 10 µM [%]
COc1cc(C)c(S(=O)(=O)Nc2ccc3ccn(CC(=O)N4CCN(CC5CCN(C)CC5)CC4)c3c2)c(C)c1 [G_CC-4, 4-Methoxy-2,6-dimethyl-N-[1-[2-[4-[(1-methyl-piperdin-4-yl)-methyl]-piperazin-1-yl]-2-oxo-ethyl]-1H-indol-6-yl]-benzenesulfonic acid amide] | 99 | 
Cc1cc(S(=O)(=O)Nc2ccc3ccn(CCC(=O)NCCN4CCC(c5cccs5)(N(C)C)CC4)c3c2)c(C)cc1Cl [G_CC-74, 3-[6-[[(4-Chloro-2,5-dimethyl-phenyl)sulfonyl]amino]-1H-indol-1-yl]-N-[2-(4-dimethylamino-4-thiophen-2-yl-piperidin-1-yl)-ethyl]-propionamide] |  | 51
CCN1CCN(CCCNC(=O)CCn2ccc3cccc(NS(=O)(=O)c4c(C)cc(OC)cc4C)c32)CC1 [G_CC-56, N-[3-(4-Ethyl-piperazin-1-yl)-propyl]-3-[7-[[(4-methoxy-2,6-dimethyl-phenyl)sulfonyl]amino]-1H-indol-1-yl]-propionamide] |  | 54
Cc1cc(S(=O)(=O)Nc2cccc3ccn(CCC(=O)N4CCC(N5CCN(C)CC5)CC4)c23)c(C)cc1Cl [G_CC-61, 4-Chloro-2,5-dimethyl-N-[1-[3-[4-(4-methyl-piperazin-1-yl)-piperidin-1-yl]-3-oxo-propyl]-1H-indol-7-yl]-benzenesulfonic acid amide] |  | 79
COc1cc(C)c(S(=O)(=O)Nc2cccc3ccn(CC(=O)NCCC4CCN(c5ccncc5)CC4)c23)c(C)c1 [G_CC-21, 2-[7-[[(4-Methoxy-2,6-dimethyl-phenyl)sulfonyl]amino]-1H-indol-1-yl]-N-[2-(1-pyridin-4-yl-piperidin-4-yl)-ethyl]-acetamide] |  | 97
O=C(CCn1ccc2ccc(N3Cc4cccc(Cl)c4C3=O)cc21)NCCC1CCN(c2ccncc2)CC1 [G_CC-72, 3-[6-(4-Chloro-3-oxo-1,2-dihydro-isoindol-2-yl)-1H-indol-1-yl]-N-[2-(1-pyridin-4-yl-piperidin-4-yl)-ethyl]-propionamide] |  | 71
COc1cc(C)c(S(=O)(=O)Nc2cccc3ccn(CC(=O)N4CCC(c5cccs5)(N(C)C)CC4)c23)c(C)c1 [G_CC-20, N-[1-[2-(4-Dimethylamino-4-thiophen-2-yl-piperidin-1-yl)-2-oxo-ethyl]-1H-indol-7-yl]-4-methoxy-2,6-dimethyl-benzenesulfonic acid amide] |  | 86
COc1cc(C)c(S(=O)(=O)Nc2cccc3ccn(CCC(=O)N4CCC(N5CCN(C)CC5)CC4)c23)c(C)c1 [G_CC-42, 4-Methoxy-2,6-dimethyl-N-[1-[3-[4-(4-methyl-piperazin-1-yl)-piperidin-1-yl]-3-oxo-propyl]-1H-indol-7-yl]-benzenesulfonic acid amide] |  | 66
O=C(Cn1ccc2ccc(N3Cc4cccc(Cl)c4C3=O)cc21)NCC1CCN(c2ccncc2)CC1 [G_CC-111, 2-[6-(4-Chloro-3-oxo-1,2-dihydro-isoindol-2-yl)-1H-indol-1-yl]-N-[(1-pyridin-4-yl-piperidin-4-yl)-methyl]-acetamide] |  | 81
COc1cc(C)c(S(=O)(=O)Nc2ccc3ccn(CC(=O)N4CCC(OCCN5CCCC5)(c5cccnc5)CC4)c3c2)c(C)c1 [G_CC-57, 4-Methoxy-2,6-dimethyl-N-[1-[2-oxo-2-[4-pyridin-3-yl-4-(2-pyrrolidin-1-yl-ethoxy)-piperidin-1-yl]-ethyl]-1H-indol-6-yl]-benzenesulfonic acid amide] |  | 100
O=C(CCn1ccc2cccc(NS(=O)(=O)c3ccccc3C(F)(F)F)c21)N1CCC2(CC1)CCN(c1ccncc1)CC2 [G_CC-52, N-[1-[3-Oxo-3-(3-pyridin-4-yl-3,9-diazaspiro[5.5]undecan-9-yl)-propyl]-1H-indol-7-yl]-2-(trifluoromethyl)-benzenesulfonic acid amide] |  | 100
COc1cc(C)c(S(=O)(=O)Nc2ccc3ccn(CC(=O)N4CCC5(CCN(Cc6ccccc6)C5)C4)c3c2)c(C)c1 (centres unmarked) [G_CC-10, N-[1-[2-(3-Benzyl-3,7-diazaspiro[4.4]nonan-7-yl)-2-oxo-ethyl]-1H-indol-6-yl]-4-methoxy-2,6-dimethyl-benzenesulfonic acid amide] |  | 69
COc1cc(C)c(S(=O)(=O)Nc2ccc3ccn(CC(=O)N(C)CCC4CCC(c5ccccc5)(N(C)C)CC4)c3c2)c(C)c1 (centres unmarked) [G_CC-95, N-[2-(4-Dimethylamino-4-phenyl-cyclohexyl)-ethyl]-2-[6-[[(4-methoxy-2,6-dimethyl-phenyl)sulfonyl]amino]-1H-indol-1-yl]-N-methyl-acetamide] |  | 96
COc1cc(C)c(S(=O)(=O)Nc2ccc3ccn(CCC(=O)N(C)CCC4CCC(c5ccccc5)(N(C)C)CC4)c3c2)c(C)c1 (centres unmarked) [G_CC-117, N-[2-(4-Dimethylamino-4-phenyl-cyclohexyl)-ethyl]-3-[6-[[(4-methoxy-2,6-dimethyl-phenyl)sulfonyl]amino]-1H-indol-1-yl]-N-methyl-propionamide] |  | 74
CN1CCN(C2(c3cccc(F)c3)CCN(C(=O)Cn3ccc4ccc(N5Cc6cccc(Cl)c6C5=O)cc43)CC2)CC1 [G_CC-128, 7-Chloro-2-[1-[2-[4-(3-fluorophenyl)-4-(4-methyl-piperazin-1-yl)-piperidin-1-yl]-2-oxo-ethyl]-1H-indol-6-yl]-2,3-dihydro-isoindol-1-one] |  | 61
COc1cc(C)c(S(=O)(=O)Nc2cccc3ccn(CC(=O)N(C)CCN4CCC(c5cccc(F)c5)(N5CCN(C)CC5)CC4)c23)c(C)c1 [G_CC-102, N-[2-[4-(3-Fluorophenyl)-4-(4-methyl-piperazin-1-yl)-piperidin-1-yl]-ethyl]-2-[7-[[(4-methoxy-2,6-dimethyl-phenyl)sulfonyl]amino]-1H-indol-1-yl]-N-methyl-acetamide] |  | 89
COc1cc(C)c(S(=O)(=O)Nc2ccc3ccn(CC(=O)NCC4CCN(c5ccncc5)CC4)c3c2)c(C)c1 [G_CC-9, 2-[6-[[(4-Methoxy-2,6-dimethyl-phenyl)sulfonyl]amino]-1H-indol-1-yl]-N-[(1-pyridin-4-yl-piperidin-4-yl)-methyl]-acetamide] |  | 65
Cc1cc(S(=O)(=O)Nc2cccc3ccn(CC(=O)N4CCC5(CC4)CCN(c4ccncc4)CC5)c23)c(C)cc1Cl [G_CC-39, 4-Chloro-2,5-dimethyl-N-[1-[2-oxo-2-(3-pyridin-4-yl-3,9-diazaspiro[5.5]undecan-9-yl)-ethyl]-1H-indol-7-yl]-benzenesulfonic acid amide] |  | 95
COc1cc(C)c(S(=O)(=O)Nc2cccc3ccn(CC(=O)N4CCN(c5ccc(F)cc5)CC4)c23)c(C)c1 [G_CC-5, N-[1-[2-[4-(4-fluorophenyl)-piperazin-1-yl]-2-oxo-ethyl]-1H-indol-7-yl]-4-methoxy-2,6-dimethyl-benzenesulfonic acid amide] |  | 59
COc1cc(C)c(S(=O)(=O)Nc2cccc3ccn(CC(=O)NCCN4CCC(c5cccs5)(N(C)C)CC4)c23)c(C)c1 [G_CC-19, N-[2-(4-Dimethylamino-4-thiophen-2-yl-piperidin-1-yl)-ethyl]-2-[7-[[(4-methoxy-2,6-dimethyl-phenyl)sulfonyl]amino]-1H-indol-1-yl]-acetamide] |  | 68
